Values quoted from earlier work as cited in patent US20140100274A1, “METHODS OF ADMINISTERING COMPOSITIONS COMPRISING DOCOSAPENTAENOIC ACID” (Matinas BioPharma, Inc., priority 2012, published 2014).

Conditions: in vivo

Question: With `CC[C@H](C)C(=O)O[C@H]1C[C@H](O)C=C2C=C[C@H](C)[C@H](CC[C@@H](O)C[C@@H](O)CC(=O)O)[C@H]21` [pravastatin] as the molecule, how does the First-pass metabolism read?
Answer: occurs in all statins except pravastatin
